Experimental data: patent publication US4894453A, “2-substituted alkoxy-3-substituted-pyrazines” (Toyo Jozo Kabushiki Kaisha, priority 1986, dated 1990)

test system: PAF-induced aggregation (rabbit platelet plasma); test: Platelet aggregation inhibitory action on PAF-induced aggregation; format: cell-based; conditions: Oryctolagus cuniculus, 0.05 h, 100 μM, PAF 10-50 μg/ml, 37° C., 3 min incubation, hydrochloride salt, read-out: inhibition ratio, PAF-induced platelet aggregation
Procedure: (§1) The pharmacological activity of the present compounds [1] is illustrated below. All the compounds [1] used in the pharmacological tests were tested in the form of the hydrochloride salt thereof.
(§2) 1. Platelet aggregation inhibition:
(§3) Sample solution containing a compound [1] (final concentration 500 or 100 μM) is added to rabbit platelet plasma to which was added 10% by volume of a 3.8% sodium citrate solution, and the mixture is incubated at 37° C. for 3 minutes. A platelet activation factor (PAF, final concentration 10-50 μg/ml) or collagen (final concentration 2.5 μg/ml) is added thereto as an aggregating agent, and platelet aggregation activity is measured with an aggregometer. The results of assays for PAF-induced aggregation are shown in Table 3, and those for collagen-induced aggregation are shown in Table 4, which tables show the strong platelet aggregation inhibitory activity of the compounds [1] of the present invention.

First: CCc1nc(C)c(C)nc1OC(C(=O)NCCN1CCOCC1)c1ccccc1 (stereo not drawn) [Compound 341]
Second: CCc1nc(C)c(C)nc1OC(C(=O)NCCN1CCN(Cc2ccccc2)CC1)c1ccccc1 (stereo not drawn) [Compound 342]
The inhibition at 100 µM of the first is lower: 42% for the first, 43% for the second.

First: CCc1nc(C)c(C)nc1OC(C(=O)NCCN1CCN(Cc2ccc([N+](=O)[O-])cc2)CC1)c1ccccc1 (stereo not drawn) [Compound 344]
Second: CCc1nc(C)c(C)nc1OC(C(=O)NCCN1CCCN(Cc2ccc(F)cc2)CC1)c1ccccc1 (stereo not drawn) [Compound 347]
The inhibition at 100 µM of the first is lower: 44% for the first, 59% for the second.

Going from `CCc1nc(C)c(C)nc1OC(C(=O)NCCN1CCCN(Cc2ccc(Cl)cc2)CC1)c1ccccc1` (stereo not drawn) [Compound 348] to `CCc1nc(C)c(C)nc1OCCN1CCCN(Cc2ccc(Cl)cc2)CC1` [Compound 504], the inhibition at 100 µM falls from 70% to 60%.

Going from `CCc1nc(C)c(C)nc1OCCN1CCCN(Cc2ccc([N+](=O)[O-])cc2)CC1` [Compound 502] to `CCc1nc(C)c(C)nc1OCCN1CCCN(Cc2ccc(F)cc2)CC1` [Compound 503], the inhibition at 100 µM falls from 81% to 42%.

Compared with `Cc1nc(C)c(OCCN2CCCN(Cc3ccc(Cl)cc3)CC2)nc1C` [Compound 541], `CCc1nc(OCCN2CCCN(Cc3ccc(OC)cc3)CC2)c(C(C)C)nc1CC` [Compound 553] is higher in inhibition at 100 µM: 44% for the first, 82% for the second.

Compared with `CCCCN1CCN(CCOc2nc(CC)c(CC)nc2C(C)C)CC1` [Compound 551], `CCc1nc(OCCN2CCN(Cc3ccccc3)CC2)c(C(C)C)nc1CC` [Compound 552] is lower in inhibition at 100 µM: 97% for the first, 78% for the second.

Compared with `CCCCCc1nc2c(nc1OCCN1CCN(CCCC)CC1)CCCC2` [Compound 560], `CCCCCCc1nc2c(nc1OCCN1CCN(CCCC)CC1)CCCC2` [Compound 565] is lower in inhibition at 100 µM: 97% for the first, 94% for the second.

First: CCCCCc1nc2c(nc1OCCN1CCN(Cc3ccccc3)CC1)CCCC2 [Compound 561]
Second: CCCCCCc1nc2c(nc1OCCN1CCN(Cc3ccccc3)CC1)CCCC2 [Compound 567]
The inhibition at 100 µM of the first is lower: 56% for the first, 58% for the second.

First: CCCCCc1nc2c(nc1OCCN1CCCN(Cc3ccc(F)cc3)CC1)CCCC2 [Compound 562]
Second: CCCCCCc1nc2c(nc1OCCN1CCN(c3ccccc3OC)CC1)CCCC2 [Compound 570]
The inhibition at 100 µM of the first is higher: 45% for the first, 40% for the second.

Going from `CCCCCCCc1nc2c(nc1OCCN1CCN(CCCC)CC1)CCCC2` [Compound 571] to `CCCCCCCCCCCCc1nc2c(nc1OCCN1CCN(CCCC)CC1)CCCC2` [Compound 595], the inhibition at 100 µM falls from 88% to 85%.

`CCCCCCCCCCCCCCc1nc2c(nc1OCCN1CCN(CCCC)CC1)CCCC2` [Compound 600] showed an inhibition at 100 µM of 52%.

same assay, conditions: Oryctolagus cuniculus, 0.05 h, 500 μM, PAF 10-50 μg/ml, 37° C., 3 min incubation, hydrochloride salt, read-out: inhibition ratio, PAF-induced platelet aggregation

Work on `Cc1nc(C)c(OCC(=O)N2CCN(C(=O)COc3nc(C)c(C)nc3C)CC2)nc1C` [Compound 070] yielded an inhibition at 500 µM of 48%.

test system: collagen-induced aggregation (rabbit platelet plasma); test: Platelet aggregation inhibitory action on collagen-induced aggregation; format: cell-based; conditions: Oryctolagus cuniculus, 0.05 h, collagen 2.5 μg/ml, 37° C., 3 min incubation, hydrochloride salt, read-out: inhibition ratio, collagen-induced platelet aggregation
Procedure: as §1, §2, §3

Compared with `Cc1nc(OCCN2CCCN(Cc3ccc(Cl)cc3)CC2)c(C(C)C)nc1C` [Compound 547], `CCCCCCCCCc1nc2c(nc1OCCN1CCN(Cc3ccc(OC)cc3)CC1)CCCC2` [Compound 582] is higher in inhibition at 100 µM: 56% for the first, 58% for the second.

test system: lipoperoxide generation in rat cerebrum; test: Antioxidant activity (inhibition of lipoperoxide generation, method of Stocks et al.); format: biochemical; conditions: 100 μM; rat cerebrum supernatant, 37° C., 15 min, thiobarbituric acid, 532 nm; hydrochloride salt
Procedure: as §1
Antioxidant activity is determined according to the method of Stocks et al. [Clin. Sci. Mol. Med., 47: 215 (1974)]. Rat cerebrum is added to ice-cooled 40 mM phosphate saline buffer solution (PBS) (pH 7.4, 4 ml buffer per 1 g cerebrum), homogenized and centrifuged (1000×g, 4° C., 10 min.) to obtain a supernatant solution. The supernatant solution is diluted fivefold with the above ice-cooled PBS solution, and to a 0.9 ml aliquot thereof is added a sample containing a compound [1] (0.1 ml, final concentration 100 μM) dissolved in ethanol. The resultant mixture is incubated at 37° C. for 15 minutes, 35% perchloric acid (0.2 ml) is added, and the mixture is ice-cooled to stop the reaction and centrifuged (1300×g, 4° C., 10 min.). 0.5 ml thiobarbituric acid (5 g/lit. of 50% acetic acid) is added to the supernatant solution (1 ml), so as to measure its absorbancy at 532 nm. The amount of lipoperoxide thus generated is expressed as an amount of malondialdehyde.

First: CCc1nc(C)c(C)nc1OC(C(=O)NCCN1CCN(Cc2ccc([N+](=O)[O-])cc2)CC1)c1ccccc1 (stereo not drawn) [Compound 344]
Second: CCc1nc(C)c(C)nc1OC(C(=O)NCCN1CCCN(Cc2ccc(F)cc2)CC1)c1ccccc1 (stereo not drawn) [Compound 347]
The “inhibition ratio, lipoperoxide generation (antioxidant activity)” value (from here on “inhibition ratio”) of the first is lower: 48% for the first, 51% for the second.

Going from `CCc1nc(C)c(C)nc1OC(C(=O)NCCN1CCN(Cc2ccc(Cl)cc2Cl)CC1)c1ccccc1` (stereo not drawn) [Compound 345] to `CCc1nc(C)c(C)nc1OC(C(=O)NCCN1CCCN(Cc2ccc(Cl)cc2)CC1)c1ccccc1` (stereo not drawn) [Compound 348], the “inhibition ratio” value rises from 54% to 62%.

`O=C(COc1nc2c(nc1Cc1ccccc1)CCCC2)NCCN1CCN(c2ccc(Cl)cc2)CC1` [Compound 371] and `O=C(COc1nc2c(nc1Cc1ccccc1)CCCC2)NCCN1CCN(c2ccccc2)CC1` [Compound 373] are the same in “inhibition ratio” value: 49% for the first, 49% for the second.

Going from `O=C(COc1nc2c(nc1Cc1ccccc1)CCCC2)NCCN1CCCN(Cc2ccc(F)cc2)CC1` [Compound 372] to `CCc1nc(Cc2ccccc2)c(OCC(=O)NCCN2CCCN(Cc3ccc(Cl)cc3)CC2)nc1CC` [Compound 382], the “inhibition ratio” value rises from 64% to 83%.

Compared with `CCc1nc(Cc2ccccc2)c(OCC(=O)NCCN2CCN(Cc3ccc(Cl)cc3)CC2)nc1CC` [Compound 379], `Cc1nc(Cc2ccccc2)c(OCCN2CCCN(Cc3ccc(Cl)cc3)CC2)nc1C` [Compound 516] is higher in “inhibition ratio” value: 50% for the first, 75% for the second.

Going from `CCc1nc(C)c(C)nc1OCCN1CCCN(Cc2ccc([N+](=O)[O-])cc2)CC1` [Compound 502] to `CCCCc1nc2c(nc1OCCN1CCCN(Cc3ccc(Cl)cc3)CC1)CCCC2` [Compound 520], the “inhibition ratio” value rises from 69% to 83%.

Compared with `CCCCCc1nc2c(nc1OCCN1CCCN(Cc3ccc(F)cc3)CC1)CCCC2` [Compound 562], `CCCCCCc1nc2c(nc1OCCN1CCCN(Cc3ccc(F)cc3)CC1)CCCC2` [Compound 569] is higher in “inhibition ratio” value: 65% for the first, 81% for the second.

First: CCCCCCc1nc2c(nc1OCCN1CCN(Cc3ccc(Cl)cc3)CC1)CCCC2 [Compound 568]
Second: CCCCCCCCc1nc2c(nc1OCCN1CCN(Cc3ccc(Cl)cc3)CC1)CCCC2 [Compound 575]
The “inhibition ratio” value of the first is lower: 61% for the first, 79% for the second.

Compared with `CCCCCCc1nc2c(nc1OCCN1CCN(c3ccccc3OC)CC1)CCCC2` [Compound 570], `CCCCCCCCc1nc2c(nc1OCCN1CCN(c3ccccc3OC)CC1)CCCC2` [Compound 578] is higher in “inhibition ratio” value: 65% for the first, 88% for the second.

`CCCCCCCCc1nc2c(nc1OCCN1CCN(Cc3ccccc3)CC1)CCCC2` [Compound 574] and `CCCCCCCCCc1nc2c(nc1OCCN1CCN(Cc3ccccc3)CC1)CCCC2` [Compound 581] are the same in “inhibition ratio” value: 71% for the first, 71% for the second.

`CCCCCCCCc1nc2c(nc1OCCN1CCCN(Cc3ccc(F)cc3)CC1)CCCC2` [Compound 576] and `CCCCCCCCCCc1nc2c(nc1OCCN1CCCN(Cc3ccc(F)cc3)CC1)CCCC2` [Compound 592] are the same in “inhibition ratio” value: 85% for the first, 85% for the second.

First: CCCCCCCCc1nc2c(nc1OCCN1CCN(c3ccccc3)CC1)CCCC2 [Compound 577]
Second: CCCCCCCCCCc1nc2c(nc1OCCN1CCN(Cc3ccccc3)CC1)CCCC2 [Compound 589]
The “inhibition ratio” value of the first is lower: 71% for the first, 74% for the second.

Compared with `CCCCCCCCCc1nc2c(nc1OCCN1CCN(Cc3ccc(OC)cc3)CC1)CCCC2` [Compound 582], `CCCCCCCCCCCCc1nc2c(nc1OCCN1CCN(Cc3ccc(OC)cc3)CC1)CCCC2` [Compound 597] is lower in “inhibition ratio” value: 82% for the first, 76% for the second.

Going from `CCCCCCCCCc1nc2c(nc1OCCN1CCCN(Cc3ccc(Cl)cc3)CC1)CCCC2` [Compound 583] to `CCCCCCCCCCc1nc2c(nc1OCCN1CCN(Cc3ccc(Cl)cc3)CC1)CCCC2` [Compound 590], the “inhibition ratio” value falls from 82% to 74%.

Going from `CCCCCCCCCCc1nc2c(nc1OCCN1CCCCC1)CCCC2` [Compound 586] to `CCCCCCCCCCCCc1nc2c(nc1OCCN1CCOCC1)CCCC2` [Compound 594], the “inhibition ratio” value falls from 68% to 58%.

First: CCCCCCCCCCc1nc2c(nc1OCCN1CCN(C(c3ccccc3)c3ccccc3)CC1)CCCC2 [Compound 591]
Second: CCCCCCCCCCCCc1nc2c(nc1OCCN1CCN(Cc3ccccc3)CC1)CCCC2 [Compound 596]
The “inhibition ratio” value of the first is lower: 59% for the first, 73% for the second.

Compared with `CCCCCCCCCCc1nc2c(nc1OCCN1CCN(c3ccc(OC)cc3)CC1)CCCC2` [Compound 593], `CCCCCCCCCCCCc1nc2c(nc1OCCN1CCN(c3ccccc3OC)CC1)CCCC2` [Compound 599] is lower in “inhibition ratio” value: 73% for the first, 70% for the second.

First: CCCCCCCCCCCCc1nc2c(nc1OCCN1CCN(CCCC)CC1)CCCC2 [Compound 595]
Second: CCCCCCCCCCCCCCc1nc2c(nc1OCCN1CCN(CCCC)CC1)CCCC2 [Compound 600]
The “inhibition ratio” value of the first is higher: 70% for the first, 61% for the second.

Compared with `CCCCCCCCCCCCc1nc2c(nc1OCCN1CCCN(Cc3ccc(F)cc3)CC1)CCCC2` [Compound 598], `CCCCCCCCCCCCCCc1nc2c(nc1OCCN1CCN(Cc3ccc(F)cc3)CC1)CCCC2` [Compound 602] is lower in “inhibition ratio” value: 88% for the first, 64% for the second.

Going from `CCCCCCCCCCCCCCc1nc2c(nc1OCCN1CCN(Cc3ccccc3)CC1)CCCC2` [Compound 601] to `CCCCCCCCCCCCCCCCc1nc2c(nc1OCCN1CCN(Cc3ccccc3)CC1)CCCC2` [Compound 608], the “inhibition ratio” value falls from 67% to 55%.

First: CCCCCCCCCCCCCCc1nc2c(nc1OCCN1CCCN(Cc3ccc(Cl)cc3)CC1)CCCC2 [Compound 603]
Second: CCCCCCCCCCCCCCCCc1nc2c(nc1OCCN1CCN(CCCC)CC1)CCCC2 [Compound 607]
The “inhibition ratio” value of the first is higher: 76% for the first, 52% for the second.
